The results in this text go back to ChEMBL document CHEMBL1201862, “PubChem BioAssay data set” (2004).

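Following 48 hours of exposure in 96-well plates, responses at five concentrations were used to interpolate endpoints linearly. Abbreviation: GI50, concentration required for 50% inhibition of growth.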 Activity calls are given as the source filed them. Rule as the data show it: active = GI50 up to about 1.1 µM and inactive = higher. Where only a bound is given, the exact number is not on record here.

Some test systems named below: SF-268; NCI-H460; K562; SNB-75; SK-MEL-28; NCI-H23; SW-620; SK-MEL-5; HCC 2998; RXF 393; SK-OV-3; NCI-H226; NCI/ADR-RES; LOX IMVI; HCT-116; RPMI-8226; OVCAR-5; A549; ACHN; TK-10.
Common to all, as to experiment: growth of human tumour cells (NCI), 48 h

`CC(=O)O[C@H]1CC[C@@]2(C)[C@H](CC[C@@H]3[C@@H]2CC[C@]2(C)[C@@H](c4ccc(=O)oc4)C[C@H]4O[C@]342)C1`: the GI50 was 0.348 µM (active) in the assay with SF-268; 0.212 µM (active) in the assay with NCI-H460; 0.646 µM (active) in the assay with K562; 0.708 µM (active) in the assay with SNB-75; 2.2 µM (inactive) with SK-MEL-28; 0.327 µM (active) in the assay with NCI-H23. Besides, the GI50 in the assay with SW-620 is 0.665 µM (active); with SK-MEL-5 it was 0.34 µM (active); in the assay on HCC 2998 it was 1.33 µM (inactive); in the assay on RXF 393 it was 0.147 µM (active); in the assay with SK-OV-3 it was 1.83 µM (inactive); with NCI-H226 it was 2.28 µM (inactive). Further, the GI50 in the assay with NCI/ADR-RES is 0.518 µM (active); in the assay on LOX IMVI, 0.904 µM (active); with HCT-116, 0.472 µM (active); in the assay on RPMI-8226, 0.664 µM (active); in the assay with OVCAR-5, 4.8 µM (inactive); in the assay on A549, 0.213 µM (active).

Turning to `Cc1nc2ccccc2c(=O)n1CC(=O)O`, the GI50 in the assay with SF-268, with NCI-H460, with K562, with SNB-75, in the assay with SK-MEL-28 and in the assay with NCI-H23 was > 100 µM (inactive) throughout. Also, the GI50 in the assay with SW-620, in the assay with SK-MEL-5, in the assay on HCC 2998, with RXF 393, in the assay on SK-OV-3 and in the assay with NCI-H226 was > 100 µM (inactive) in each case. For the same compound, the GI50 in the assay with NCI/ADR-RES, with LOX IMVI, in the assay on HCT-116, in the assay with RPMI-8226, with OVCAR-5 and in the assay on A549 was > 100 µM (inactive) in each case.

In the case of `CCOC(=O)c1csc(NC(=O)CCN2CCN(C)CC2)n1`, the GI50 is > 100 µM (inactive) in the assay on NCI-H460; 69.8 µM (inactive) with K562; > 100 µM (inactive) with SNB-75; > 100 µM (inactive) in the assay with SK-MEL-28; > 100 µM (inactive) with NCI-H23; 43.2 µM (inactive) in the assay with SW-620. The GI50 with SK-MEL-5, in the assay on HCC 2998, with ACHN, with RXF 393, with SK-OV-3 and in the assay on NCI-H226 was > 100 µM (inactive) throughout. Also, the GI50 with NCI/ADR-RES was > 100 µM (inactive); in the assay with LOX IMVI, > 100 µM (inactive); in the assay on TK-10 it was > 100 µM (inactive); in the assay on RPMI-8226, 55.3 µM (inactive); in the assay on OVCAR-5 it was > 100 µM (inactive); in the assay on A549 it was > 100 µM (inactive).

Consider `Nc1ccc2c(c1)C1=NNC(=O)CC1C2` (configuration not stated), for which the GI50 in the assay on SF-268 is > 100 µM (inactive); in the assay on NCI-H460, > 100 µM (inactive); in the assay on K562, > 100 µM (inactive); in the assay with SNB-75, 78.5 µM (inactive); with SK-MEL-28, > 100 µM (inactive); with NCI-H23, > 100 µM (inactive). In addition, the GI50 in the assay with SW-620 was > 100 µM (inactive); in the assay with SK-MEL-5, > 100 µM (inactive); with HCC 2998, > 74.1 µM (inactive); in the assay on RXF 393 it was > 100 µM (inactive); with SK-OV-3, > 100 µM (inactive); with NCI-H226 it was > 100 µM (inactive). Moreover, the GI50 is > 100 µM (inactive) in the assay on NCI/ADR-RES; > 100 µM (inactive) in the assay on LOX IMVI; > 100 µM (inactive) in the assay on HCT-116; > 40.4 µM (inactive) with RPMI-8226; > 92.5 µM (inactive) in the assay with OVCAR-5; > 100 µM (inactive) with A549.
